# Source: paper PMC12332667, “Role of Structural Modifications in Peptidomimetic Compounds as Potential Antimicrobial Agents against Staphylococcus aureus and Streptococcus pyogenes: Balancing Bioavailability, Safety, and Antimicrobial Activity” (ACS Omega, 2025)
# Experiments:
# [1] = tested on: S. aureus ATCC 43300; experiment: MIC/MBC broth microdilution, S. aureus; type: cell-based, Staphylococcus aureus; conditions: for MBC / MIC: S. aureus
# [2] = tested on: S. pyogenes ATCC 19615; experiment: MIC/MBC broth microdilution, S. pyogenes; type: cell-based, Streptococcus pyogenes; conditions: S. pyogenes
# Method: (§1) S. aureus (ATCC 29213),S. pyogenes (ATCC 19615),Streptococcus agalactiae (ATCC 27956),Escherichia coli (ATCC 25922),Proteus vulgaris (ATCC 6896),K. pneumoniae (ATCC 700603) andP. aeruginosa (ATCC 10145) reference strains, as well asStaphylococcus cohnii, Enterococcus faecalis, Staphylococcus schleiferi, Staphylococcus intermedius and Streptococcus mutans clinical isolates, were used to test the antibacterial activity of the peptidomimetics. Bacteria were aerobically cultured for 18 h at 37 °C in plates with sterilized brain heart infusion (BHI) broth (Sigma-Aldrich, USA) media mixed with bacteriological agar (Sigma-Aldrich, USA) using the streak plate method. After 18 h, BHI broth was inoculated to 0.5 on the McFarland scale and diluted to approximately 10^5 CFU/mL. To achieve a final stock concentration of 1024 μg/mL, the peptidomimetics were dissolved in sterile water, and 5–10% of absolute ethanol or dimethyl sulfoxide (DMSO) was added. The antibacterial activities were determined by using the standard broth microdilution method of the National Committee for Clinical Laboratory Standards. The process involved adding serially diluted peptidomimetics to consecutive wells of a 96-well microtiter plate (Brand, Germany) holding media with microorganisms. The inoculated plates treated with peptides were then placed in an incubator at 37 °C for 18 h. The MIC value was determined as the lowest concentration of peptidomimetic at which there was no obvious growth (equal or more than 90% of the untreated sample). […] The lowest concentration yielding growth in no more than 3 colonies, corresponding to at least a 99.9% kill rate, was taken as MBC. Each biological replicate included control wells with the addition of water, DMSO, and ethanol as respective solvent controls. All experiments were conducted with consistent adherence to growth and sterility controls and were performed at least in technical triplicate with three biological repeats.
# [3] = tested on: S. cohnii c.i.; experiment: MIC/MBC broth microdilution, S. cohnii; type: cell-based, Staphylococcus cohnii
# Method: as §1
# [4] = tested on: E. faecalis c.i.; experiment: MIC/MBC broth microdilution, E. faecalis; type: cell-based, Enterococcus faecalis
# Method: as §1
# [5] = tested on: S. schleiferi c.i.; experiment: MIC/MBC broth microdilution, S. schleiferi; type: cell-based, Staphylococcus schleiferi
# Method: as §1
# [6] = tested on: S. agalactiae ATCC 27956; experiment: MIC/MBC broth microdilution, S. agalactiae; type: cell-based, Streptococcus agalactiae; conditions: S. agalactiae
# Method: as §1
# [7] = tested on: S. intemrdius c.i.; experiment: MIC/MBC broth microdilution, S. intermedius; type: cell-based, Staphylococcus intermedius
# Method: as §1
# [8] = tested on: S. mutans c.i.; experiment: MIC/MBC broth microdilution, S. mutans; type: cell-based, Streptococcus mutans
# Method: as §1
# [9] = tested on: E. coli ATCC 25922; experiment: MIC/MBC broth microdilution, E. coli; type: cell-based, Escherichia coli
# Method: as §1
# [10] = tested on: P. vulgaris ATCC 6896; experiment: MIC/MBC broth microdilution, P. vulgaris; type: cell-based, Proteus vulgaris
# Method: as §1
# [11] = tested on: K. pneumoniae ATCC 700603; experiment: MIC/MBC broth microdilution, K. pneumoniae; type: cell-based
# Method: as §1
# [12] = tested on: P. aeruginosa ATCC 10145; experiment: MIC/MBC broth microdilution, P. aeruginosa; type: cell-based
# Method: as §1
# [13] = tested on: immortalized human keratinocytes (HaCaT); experiment: LDH cytotoxicity test, keratinocytes; type: cell-based; conditions: 48 h
# Method: (§2) In our study, we used two distinct cell types: immortalized human HaCaT keratinocytes (DKFZ, Heidelberg, Germany) and a human dermal fibroblast cell line (46BR.1N). […] Cultures were maintained in a humidified atmosphere with 5% CO2 at 37 °C in 25 cm^2 culture flasks with the medium replenished every 2 days. The condition of the cells was monitored using optical microscopy.
# (§3) Cell death in immortalized human keratinocytes (HaCaT) and fibroblasts (46BR.1N) was measured by quantifying the lactate dehydrogenase (LDH) activity using a commercial kit (Roche, Switzerland). Cells were seeded in 96-well plates at a density of 5000 cells per well in DMEM high glucose medium supplemented with 10% FBS. After 24 h of incubation, the medium was replaced with serum-free medium containing various concentrations of peptidomimetics (50, 100, and 150 μg/mL). After 48 h, supernatants were collected for LDH analysis. Plate readings were taken spectrophotometrically using a 450 nm wavelength. Cell death measurements were normalized to an untreated control (0%), with 1% Triton X-100 detergent used as a positive control to induce maximum LDH release, indicating maximal cytotoxicity. Statistical significance was determined with a Mann–Whitney U test with a statistical significance p ≤ 0.05. Analysis was performed with Statistica software (Krakow, Poland) and graphs were prepared in GraphPad Prism (Boston, USA).
# [14] = tested on: fibroblasts (46BR.1N); experiment: LDH cytotoxicity test, fibroblasts; type: cell-based; conditions: 48 h
# Method: as §2, §3
# [15] = tested on: immortalized human HaCaT keratinocytes; experiment: XTT cell proliferation assay, keratinocytes; type: cell-based
# Method: (§4) In our study, we used two distinct cell types: immortalized human HaCaT keratinocytes (DKFZ, Heidelberg, Germany) and a human dermal fibroblast cell line (46BR.1N). […] Cultures were maintained in a humidified atmosphere with 5% CO2 at 37 °C in 25 cm^2 culture flasks with the medium replenished every 2 days. The condition of the cells was monitored using optical microscopy. […] After 24 h of incubation, the medium was replaced with serum-free HG-DMEM containing appropriate concentrations of peptidomimetics. All solutions used in the experiments were prepared with double-distilled water or with the addition of ethanol under sterile conditions to ensure compatibility with the conditions of the bacteriological assay. For 72 h of incubation, half of the medium was replaced with fresh medium after 48 h, and cells were stimulated with peptides for a second time. The XTT cell proliferation assay was then performed according to the manufacturer’s instructions (Roche, Switzerland). Cells were treated with the peptides for either 48 or 72 h, followed by the addition of XTT reagent, and the plates were then incubated at 37 °C in a 5% CO2 environment for 4 h. Plate readings were taken using a standard plate reader at a wavelength of 490 nm (OD = 490 nm). […] Statistical significance was determined with a Mann–Whitney U test with statistical significance p ≤ 0.05. Analysis was performed with Statistica software, and graphs were prepared in GraphPad Prism.
# [16] = tested on: human dermal fibroblast cell line (46BR.1N); experiment: XTT cell proliferation assay, fibroblasts; type: cell-based
# Method: as §4
# [17] = XTT, 48 and 72 h, 0.01–150 μg/mL
# [18] = up to 150 μg/mL, A-193 and A-179 after 48 h
compound,measurement,setting,value
CC(C)C[C@H](NC(=O)[C@H](CCCNC(=N)N)NC(=O)OCc1ccccc1)C(=O)N[C@H](CNC(=O)C(=Cc1ccccc1)c1ccccc1)C(C)C [Compound A-164],MBC,[1]; H2O,16 µg/mL
same,MIC,[1]; H2O,8 µg/mL
same,MBC,[1]; water additive DMSO,16 µg/mL
same,MIC,[1]; water additive DMSO,8 µg/mL
same,MBC,[1]; water additive EtOH,16 µg/mL
same,MIC,[1]; water additive EtOH,8 µg/mL
same,MIC value for S. aureus,[1]; additive not stated,8 µg/mL
same,MBC,[2]; H2O,16 µg/mL
same,MIC,[2]; H2O,8 µg/mL
same,MBC,[2]; water additive DMSO,16 µg/mL
same,MIC,[2]; water additive DMSO,8 µg/mL
same,MBC,[2]; water additive EtOH,8 µg/mL
same,MIC,[2]; water additive EtOH,4 µg/mL
same,MBC,[3]; water additive DMSO,32 µg/mL
same,MIC,[3]; water additive DMSO,16 µg/mL
same,MIC,[3]; water additive EtOH,32 µg/mL
same,MIC,[4]; H2O,32 µg/mL
same,MBC,[4]; water additive DMSO,32 µg/mL
same,MIC,[4]; water additive DMSO,16 µg/mL
same,MIC,[4]; water additive EtOH,32 µg/mL
same,MBC,[5]; H2O,16 µg/mL
same,MIC,[5]; H2O,8 µg/mL
same,MBC,[5]; water additive DMSO,32 µg/mL
same,MIC,[5]; water additive DMSO,16 µg/mL
same,MBC,[5]; water additive EtOH,8 µg/mL
same,MIC,[5]; water additive EtOH,4 µg/mL
same,MBC,[6]; H2O,16 µg/mL
same,MIC,[6]; H2O,8 µg/mL
same,MBC,[6]; water additive DMSO,32 µg/mL
same,MIC,[6]; water additive DMSO,16 µg/mL
same,MBC,[6]; water additive EtOH,8 µg/mL
same,MIC,[6]; water additive EtOH,4 µg/mL
same,MBC,[7]; H2O,32 µg/mL
same,MIC,[7]; H2O,16 µg/mL
same,MBC,[7]; water additive DMSO,8 µg/mL
same,MIC,[7]; water additive DMSO,4 µg/mL
same,MBC,[7]; water additive EtOH,16 µg/mL
same,MIC,[7]; water additive EtOH,8 µg/mL
same,MIC,[8]; H2O,> 512 µg/mL
same,MIC,[8]; water additive DMSO,> 512 µg/mL
same,MIC,[8]; water additive EtOH,> 512 µg/mL
same,MIC,[9]; H2O,> 512 µg/mL
same,MIC,[9]; water additive DMSO,> 512 µg/mL
same,MIC,[9]; water additive EtOH,> 512 µg/mL
same,MIC,[10]; H2O,> 512 µg/mL
same,MIC,[10]; water additive DMSO,> 512 µg/mL
same,MIC,[10]; water additive EtOH,> 512 µg/mL
same,MIC,[11]; H2O,> 512 µg/mL
same,MIC,[11]; water additive DMSO,> 512 µg/mL
same,MIC,[11]; water additive EtOH,> 512 µg/mL
same,MIC,[12]; H2O,> 512 µg/mL
same,MIC,[12]; water additive DMSO,> 512 µg/mL
same,MIC,[12]; water additive EtOH,> 512 µg/mL
same,"cytotoxicity (LDH), in words",[13]; 50-150 μg/mL,cytotoxic effects across all of the tested concentrations
same,concentration at which cytotoxic effect starts,[13]; LDH,50 µg/mL
same,"cytotoxicity (LDH), in words",[14]; 50-150 μg/mL,cytotoxic effects across all of the tested concentrations
same,concentration at which cytotoxic effect starts,[14]; LDH,50 µg/mL
same,proliferation relative to control at 50 μg/mL,"[15]; XTT, 50 μg/mL",50%
same,"effect on proliferation, in words",[15]; [17],negative impact
same,antiproliferative effect (decrease vs control),[15]; [18],up to 50%
same,viability,"[16]; 48 h, 50, 100 and 150 μg/mL",over 20%
same,proliferation relative to control at 50 μg/mL,"[16]; XTT, 50 μg/mL",50%
same,"effect on proliferation, in words",[16]; [17],negative impact
same,antiproliferative effect (decrease vs control),[16]; [18],up to 50%
